From US12269859B2, “Synthetic immune receptors and methods of use thereof” (Angeles Therapeutics, Inc., priority 2016, dated 2025)

Experiments:
[1] = test system: RAJI cells; assay: RAJI xenograft model of lymphoma in NSG mice (survival); format: in vivo
Method: In vivo efficacy of SIR targeting CD19. […] SIR constructs and Gluc-PAC-G07 control construct encoding non-secretory form of Guassia Luciferase. Approximately half the cells were selected with puromycin while the other half was expanded without puromycin selection. NSG mice (Jackson Lab) were sub-lethally irradiated at a dose of 175 cGy. Approximately 24 hours post irradiation (day 2), mice were injected with 2.5×10^4 RAJI cells via tail-vein. […] Control mice (n=5) received no T cells or uninfected T cells. Mice were given human IL2 (400 IU intraperitoneally) on alternate days till the death of all mice in control group.
Approximately half the cells were selected with puromycin while the other half was expanded without puromycin selection. NSG mice (Jackson Lab) were sub-lethally irradiated at a dose of 175 cGy. Approximately 24 hours post irradiation (day 2), mice were injected with 2.5×10^4 RAJI cells via tail-vein. […] Control mice (n=5) received no T cells or uninfected T cells. Mice were given human IL2 (400 IU intraperitoneally) on alternate days till the death of all mice in control group.
SIR construct. NSG mice (Jackson Lab) were sub-lethally irradiated at a dose of 175 cGy. Approximately 24 hours post irradiation (day 2), mice were injected with 2.5×10^4 RAJI cells via tail-vein. […] SIR encoding lentivirus. Control mice (n=5) were injected with 5 million uninfected T cells or given no T cells.
SIR constructs. […] SIR were included as controls. NSG mice (n=5) were sub-lethally irradiated at a dose of 175 cGy. 24 hours post irradiation (day 2), mice were injected with 2.5×10^4 RAJI cells via tail-vein. […] Mice were given human IL2 (400 IU i.p.) on alternate days till the death of all mice in control group.
Human peripheral blood T cells isolated using CD3 magnetic beads were infected with lentiviruses expressing the indicated SIR constructs targeting Lym1 and Lym2. On day 1, the NSG mice were sub-lethally irradiated at a dose of 175 cGy. 24 hours post irradiation (day 2), mice were injected with 25×10^3 Raji cells intravenously. On day 3, the mice were treated intravenously with 10 million indicated CAR-T cells. Beginning on day 4, mice were injected with human IL-2 i.p. at a dose of 400 IU/mice every alternate day after the injection CAR-T cells till the death of all mice in control group.

[2] = test system: target antigen-expressing cell line; assay: Jurkat NFAT-GFP assay, coculture with target cell lines expressing the respective target antigen (summary Table 10A); format: cell-based, human; design: key: The signs +/−, +, 2+ etc. after the name of the cell lines indicate the relative degree of positivity on the Jurkat-NFAT-GFP assay as measured by the % GFP positive cells; +: relative degree of positivity on the Jurkat-NFAT-GFP assay as measured by the % GFP positive cells; 2+: relative degree of positivity on the Jurkat-NFAT-GFP assay as measured by the % GFP positive cells; details: relative % GFP positive cells; for NFAT-GFP ASSAY Positive Cell lines: NALM6: SIR-expressing Jurkat-NFAT-GFP cells cocultured with NALM6
Method: (B) Induction of NFAT promoter driven GFP expression. The control vector- and SIR-expressing Jurkat-NFAT-GFP cocultured for 4-24 hours with the target antigen-expressing cell line (described above) and their ability to bind to the target antigen is assayed by measuring induction of GFP expression using Flow Cytometry. Cellular supernatant is collected and assayed for the induction of cytokines (e.g., IL2).
Jurkat NFAT-GFP Assay For Synthetic Immune Receptors. The Jurkat-NFAT-GFP cells are engineered in such a way that the IL-2 promoter, which carries NFAT binding sites, is cloned upstream of the GFP gene. These cells have been used to study signaling via TCR and CAR. The different SIRs were stably expressed in Jurkat NFAT-GFP cells by lentiviral mediated gene transfer, followed by selection with puromycin. The SIR-expressing Jurkat-NFAT-GFP cells were cocultured with the target cells at E:T ratio of approximately 1:2 for approximately 4 hours to 18 hours. When the interaction between SIRs and their target antigen results in activation of the NFAT pathway, GFP expression is induced.
Induction of GFP expression by coculturing of Jurkat-NFAT-GFP cells expressing different SIR constructs and the different target cells was studied essentially as described previously (Wu, Roybal, Puchner, Onuffer, & Lim, 2015). GFP expression was monitored by FACS analysis. A few representative examples of this assay are shown in the FIG. 13A-B. In panel A, control Jurkat-NFAT-GFP cells or those expressing SIRs targeting CD19 (clone ID 051716-I08), MPL (Clone ID: 040716-A07) and BCMA (Clone ID: 011116-A07) were incubated with RAJI (top), HEL (middle) or U266 (bottom) cells, respectively. […] In panel B, Jurkat cells expressing SIR targeting CDH6 (Clone ID: 051716-J05), CD276 (Clone ID: 050516-Q06) and Her2/neu (Clone ID: 050516-I03) were incubated with SKOV3 (top) and […] (middle and bottom) cells, respectively. […] The Jurkat-NFAT-GFP cells were engineered to express different SIRs targeting other antigens and the experiment repeated upon coculture with the target cells expressing their respective target antigen. The Jurkat-NFAT-GFP (parental) cells were used as control. The names of different SIRs, their SEQ ID NOs, component antigen binding domains and TCR chains can be determined by reference to Tables 7A-7H. A SIR is considered positive in the assay in case the SIR expressing Jurkat-NFAT-GFP cells show greater % GFP positive cells when cultured with the target cell line as compared to parental Jurkat-NFAT-GFP cells. […] The signs +/−, +, 2+ etc. after the name of the cell lines indicate the relative degree of positivity on the Jurkat-NFAT-GFP assay as measured by the % GFP positive cells after culture of the SIR expressing Jurkat-NFAT-GFP cells with that cell line. […] In addition, great diversity of response against the same target cell line is observed with Jurkat cells expressing SIRs containing different antigen binding domains targeting the same antigen (e.g., SIRs having antigen binding domains derived form different CD19 antibodies) even when the SIRs share the same TCR chains and linkers. Finally, Jurkat cells expressing SIRs targeting different antigens (e.g. CD19 vs CD20) show a diversitiy of response when exposed to the same target cell line. Thus, a diverse immune response can be generated against a single target cell by combining SIRs with different TCR chains, linkers, antigen binding domains and target specificity. Table 10A also summarizes the results of GLuc based T cell cytotoxicity assay observed with different SIRs when exposed to their target cell lines. […]

[3] = FIG. 17: 2.5×10^4 RAJI cells, 5 million T cells on day 3, human IL2 (400 IU i.p.) on alternate days

Substance | Median Survival [1, 3] [days] | NFAT-GFP ASSAY Positive Cell lines: NALM6 [2] | Median Survival ([1]; NSG mice, 2.5×10^4 RAJI cells via tail-vein, 5 million T cells on day 3, Table 13) [days] | survival (in words) ([1]; experiment of Table 13) | NFAT-GFP ASSAY Positive Cell lines: RAJI ([2]; SIR-expressing Jurkat-NFAT-GFP cells cocultured with RAJI)
CD8SP-CD19Bu12-vL-V5-[TCRb-S57C-opt1]-F-P2A-SP-CD19Bu12-vH-Myc-[TCRa-T48C-opt1]-F-F2A-PAC [SEQ ID NO:1021] | 51 | (2+) | – | – | –
CD8SP-FMC63-vL-V5-[TCRb-S57C-opt1]-F-P2A-SP-FMC63-vH-Myc-[TCRa-T48C-opt1]-F-F2A-PAC [SEQ ID NO:900] | 28.0 | RAJI(2+), NALM6(2+) | 27 | conferred survival advantage | RAJI(2+), NALM6(2+)
